Test results as given in article PMC11904948, “Peptide‐Drug Conjugate for Therapeutic Reprogramming of Tumor‐Associated Macrophages in Breast Cancer” (Advanced Science, 2025).

Legend:
[1] = Hepatic and renal toxicity serum levels in healthy mice; format: in vivo; details: 48 h after one i.p. dose of 3 mg/Kg, healthy Balb/c mice, n = 4
Procedure: To investigate potential off‐target risk in vivo caused by MACTIDE‐V we analyzed the serum levels of the hepatic enzyme alanine aminotransferase (ALAT) following a 3 mg Kg^−1 dose of MACTIDE‐V in healthy mice. If MACTIDE‐V causes off‐target inflammation, it would likely occur in the liver (the organ that expresses the MACTIDE receptor) and would reflect on ALAT levels (liver inflammation produces a > 2‐fold increase in ALAT^[ [35] ^]).
Table S1. Hepatic and renal toxicity analysed following one dose of MACTIDE-V. Hepatic and renal toxicology serum levels of Crea and ALAT 48 h after i.p.-administration of MACTIDE-V (3 mg/kg) in healthy Balb/c mice (n=4). Normal ranges were obtained from Mouse Phenome Database by The Jackson Laboratory.

[2] = test system: orthotopic 4T1.2 tumors; experiment: MACTIDE-V + anti-PD-1 combination therapy in orthotopic 4T1.2; format: in vivo, Balb/c mice
Procedure: 4T1.2 bearing mice were treated with 9 doses of CtrlPep‐V, MACTIDE‐V (1 mg Kg^−1 in Verteporfin per dose), or PBS i.p. every other day according to the scheme in (A). Anti‐PD‐1 injections started 16 days post‐tumor induction (three injections of 200 µg each). Mice were sacrificed on day 29, their tumor weights were analyzed (B), pulmonary metastases area quantified from H&E‐stained sections (C), and their tumors were analyzed with flow cytometry (D–H).
5×10^5 4T1.2 cells in 50 µL of PBS were injected subcutaneously into 4th mammary fat pad. On day 8, mice were sorted into groups based on tumor volume (≈40 mm^3): PBS, anti‐PD‐1, MACTIDE‐V, MACTIDE‐V+anti‐PD‐1. Mice were treated i.p. every other day with 500 µL of MACTIDE‐V (30 nmol, 1mg kg^−1 Verteporfin) or PBS (10 injections in total). On day 18 post‐injection, MACTIDE‐V+anti‐PD‐1 and anti‐PD‐1 groups received recombiMAb anti‐mouse PD‐1 (Bioxcell, Catalog #CP151), a mouse IgG2a monoclonal antibody with the D265A mutation in the Fc fragment which renders it unable to bind to endogenous Fcγ receptors. Mice received three intraperitoneal injections of 200 µg of anti‐PD‐1 dissolved in 500 µL of PBS. […] Five tumors per group were analyzed by FC as described above. TAM/monocytes were defined as Ly6G^−CD11b^+/F4/80^+ population from the CD45^+ population.
The lungs of all mice were fixed in formalin and embedded in paraffin, and later sectioned and stained with H&E by the histology facility of Vall D´Hebron Research Institute (Barcelona, Spain). Five 10 µm‐sections spaced apart 1 mm were taken from the lungs of each mouse (n = 7 mice per group). Then, the slides were scanned, and the metastatic area divided by the total lung area was calculated for each mouse.

[3] = tumor flow cytometry, five tumors per group

For “Vert‐Ahx‐G(CTKSIPPIC)SPGAK‐OH (disulfide) [MACTIDE‐V]”, the “Creatinine, serum” value ([1]; normal range 10-36) was 11.8 ± 1 µM, the “Alanine aminotransferase, serum” value ([1]; normal range 50-90) was 52 ± 10.5 U/I and the primary tumor mass ([2]; MACTIDE-V 30 nmol i.p. every other day, anti-PD-1 three i.p. injections of 200 µg, sacrifice day 29) was “significantly reduced the primary tumor mass”. For the same substance, the pulmonary metastases ([2]; metastatic area from H&E sections, n = 7 mice per group, compared with anti-PD-1) was “superior effect on reducing pulmonary metastases”, the B cell infiltration ([2]; tumor flow cytometry) was “no differences in B cell infiltration” and the “expression of Granzyme B (GrzB) in CD25^+PD‐1^+ CD8^+ T cells” value ([2]; tumor flow cytometry) was “increased”. The “expression of PD‐1 on CD8^+ T cells” value ([2]; tumor flow cytometry) was “reduced”, the “FOXP3^+PD‐1^+ population among CD4^+ T cells” value ([2]; tumor flow cytometry, compared to the other experimental conditions) was “decreasing trend” and the “CD206^+MHCII^+ population of TAM/monocytes” value [2, 3] was “highest increase”. For the same substance, the “CD206^+MHCII^− population of TAM/monocytes” value [2, 3] was “highest decrease”, the “CD86^+MHCII^+ population of TAM/monocytes” value ([2]; tumor flow cytometry, n = 5) was “significantly increased” and the “CD86^−MHCII^− population of TAM/monocytes” value ([2]; tumor flow cytometry, n = 5) was “decreased”. For the same substance, the “CD4^+ T cells, CD8^+ T cells and NK cells in tumor” value ([2]; tumor flow cytometry, statistically significant only for NK cells) was “highest increase”.
